# Measured values taken from patent US10508109B2 (priority 2015, dated 2019).
# Counter-ions that a name gives are not always drawn. Like-named read-outs stand apart in the source and are kept apart here.
# Experiments:
# SUV39H2 = SUV39H2 (Homo sapiens (Human), UniProt Q9H5I1); details: read-out: IC50 (μM) Suv 39H2 assay
# A549 = assay: Cell-based assay, anti-proliferative activity (Cell Counting Kit-8, 72 hours); details: Homo sapiens
# Experimental: 100 micro-L of cell suspension was seeded onto 96-well microtiter plate (ViewPlate-96FTC, PerkinElmer). […] Cellular growth was determined using Cell Counting Kit-8 (DOJINDO) at 72 hours after the exposure of the candidate inhibitors. […] Accurate IC50 values were calculated as described previously.
# HFL1 = assay: as above; details: Homo sapiens, read-out: IC50 (μM) HFL1
# Experimental: (§1) Active candidate inhibitors against SUV39H2 were evaluated for their target-specific cytotoxicity using A549, HCT-116, HFL1, CCD-18Co and PC14. 100 micro-L of cell suspension was seeded onto 96-well microtiter plate (ViewPlate-96FTC, PerkinElmer). The initial cell concentration of A549, HCT-116, HFL1, CCD-18Co and PC14 were 3,000 cells/well, 2,000 cells/well and 2,500 cells/well, respectively. Cellular growth was determined using Cell Counting Kit-8 (DOJINDO) at 72 hours after the exposure of the candidate inhibitors. IC50 was used as an indicator of the anti-proliferative activity of the inhibitors, and calculated by serial dilution method (0, 1.5625, 3.125, 6.25, 12.5, 25, 50, and 100 micro-M). Accurate IC50 values were calculated as described previously.
# HCT-116 = assay: as above; details: Homo sapiens, read-out: IC50 (μM) HCT-116
# Experimental: as §1
# CCD-18Co = assay: as above; details: Homo sapiens, read-out: IC50 (μM) CCD-18Co
# Experimental: as §1
# [1] = A549, 72 h, read-out: IC50 (μM) A549
# [2] = A549 cells, Cell Counting Kit-8, 72 hours, read-out: IC50 (μM) A549
# [3] = HFL1 cells, Cell Counting Kit-8, 72 hours
# [4] = HCT-116 cells, Cell Counting Kit-8, 72 hours
# [5] = CCD-18Co cells, Cell Counting Kit-8, 72 hours
# [6] = A549 cells, 72 hours exposure, Cell Counting Kit-8, read-out: A549 IC50
# Sequence of SUV39H2 (Q9H5I1 whole entry): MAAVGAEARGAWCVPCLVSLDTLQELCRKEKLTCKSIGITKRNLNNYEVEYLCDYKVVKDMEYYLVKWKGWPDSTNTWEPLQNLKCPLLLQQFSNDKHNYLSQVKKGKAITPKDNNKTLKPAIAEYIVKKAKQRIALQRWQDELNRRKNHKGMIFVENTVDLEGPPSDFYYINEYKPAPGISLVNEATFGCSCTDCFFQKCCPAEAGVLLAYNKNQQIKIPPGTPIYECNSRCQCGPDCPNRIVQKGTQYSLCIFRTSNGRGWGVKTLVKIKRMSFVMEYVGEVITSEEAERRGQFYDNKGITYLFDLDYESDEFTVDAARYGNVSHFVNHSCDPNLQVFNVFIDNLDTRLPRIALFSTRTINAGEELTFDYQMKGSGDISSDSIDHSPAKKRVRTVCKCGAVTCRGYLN
compound,measurement,setting,value
"3-amino-N-(3-(2-(5-bromo-2,4-dimethoxyphenyl)imidazo[1,2-a]pyrimidin-7-yl)cyclopentyl)propanamide hydrochloride [Example 68]",IC50,SUV39H2; enzyme assay,0.0162 µM
"COc1cc(OC)c(-c2cn3ccc(N4CCCC4)cc3n2)cc1Br [Example 1, 2-(5-bromo-2,4-dimethoxyphenyl)-7-(pyrrolidin-1-yl)imidazo[1,2-a]pyridine]",IC50,A549; [1],2.5 µM
same,IC50,"HFL1; HFL1, 72 h",1.6 µM
same,IC50,"HCT-116; HCT-116, 72 h",1.7 µM
same,IC50,"CCD-18Co; CCD-18Co, 72 h",2.6 µM
same,IC50,SUV39H2; enzyme assay,0.0182 µM
"COc1cc(OC)c(-c2cn3ccc(N)nc3n2)cc1Br [Example 2, 2-(5-bromo-2,4-dimethoxyphenyl)imidazo[1,2-a]pyrimidin-7-amine hydrochloride]",IC50,A549; [1],18 µM
same,IC50,"HFL1; HFL1, 72 h",16 µM
same,IC50,"HCT-116; HCT-116, 72 h",17 µM
same,IC50,"CCD-18Co; CCD-18Co, 72 h",16 µM
same,IC50,SUV39H2,0.0169 µM
"COc1cc(OC)c(-c2cn3ccc(N)cc3n2)cc1Br [Example 5, 2-(5-bromo-2,4-dimethoxyphenyl)imidazo[1,2-a]pyridin-7-amine]",IC50,A549; [2],3.6 µM
same,IC50,HFL1; [3],2.1 µM
same,IC50,HCT-116; [4],3.1 µM
same,IC50,CCD-18Co; [5],3.8 µM
same,IC50,SUV39H2; enzyme assay,0.0103 µM
"COc1cc(OC)c(-c2cn3ccc(N)nc3n2)cc1Cl [Example 8, 2-(5-chloro-2,4-dimethoxyphenyl)imidazo[1,2-a]pyrimidin-7-amine]",IC50,A549; [2],17 µM
same,IC50,HFL1; [3],21 µM
same,IC50,HCT-116; [4],16 µM
same,IC50,CCD-18Co; [5],19 µM
same,IC50,SUV39H2; enzyme assay,0.0182 µM
"COc1cc(OC)c(-c2cn3ccc(NCCN)cc3n2)cc1Cl [Example 10, N^1-(2-(5-chloro-2,4-dimethoxyphenyl)imidazo[1,2-a]pyridin-7-yl)ethane-1,2-diamine dihydrochloride]",IC50,A549; [1],6.8 µM
same,IC50,"HFL1; HFL1, 72 h",3.7 µM
same,IC50,"HCT-116; HCT-116, 72 h",4.2 µM
same,IC50,"CCD-18Co; CCD-18Co, 72 h",7.1 µM
same,IC50,SUV39H2,0.015 µM
COc1cc(OC)c(-c2cn3ccc(N4CCC(NC(=O)OC(C)(C)C)C4)nc3n2)cc1Br (stereo not shown) [Example 13],IC50,A549; [2],5.7 µM
same,IC50,HFL1; [3],3.7 µM
same,IC50,HCT-116; [4],6.6 µM
same,IC50,CCD-18Co; [5],4.4 µM
same,IC50,SUV39H2; enzyme assay,0.0219 µM
"COc1cc(OC)c(-c2cn3ccc(N4CCC(NC(=O)OC(C)(C)C)CC4)cc3n2)cc1Cl [Example 14, tert-butyl {1-[2-(5-chloro-2,4-dimethoxyphenyl)imidazo[1,2-a]pyridin-7-yl]piperidin-4-yl}carbamate]",IC50,A549; [2],2.7 µM
same,IC50,HFL1; [3],1.8 µM
same,IC50,HCT-116; [4],2 µM
same,IC50,CCD-18Co; [5],1.9 µM
same,IC50,SUV39H2; enzyme assay,0.0341 µM
"COc1cc(OC)c(-c2cn3ccc(N4CCC(N)CC4)cc3n2)cc1Cl [Example 15, 1-[2-(5-chloro-2,4-dimethoxyphenyl)imidazo[1,2-a]pyridin-7-yl]piperidin-4-amine]",IC50,A549; [2],3.5 µM
same,IC50,HFL1; [3],2.7 µM
same,IC50,HCT-116; [4],3.4 µM
same,IC50,CCD-18Co; [5],6.7 µM
same,IC50,SUV39H2; enzyme assay,0.0133 µM
"COc1cc(OC)c(-c2cn3ccc(N4CCC(CN)CC4)cc3n2)cc1Cl [Example 16, (1-(2-(5-Chloro-2,4-dimethoxyphenyl)imidazo[1,2-a]pyridin-7-yl)piperidin-4-yl)-methanamine hydrochloride]",IC50,A549; [1],8.8 µM
same,IC50,"HFL1; HFL1, 72 h",11 µM
same,IC50,"HCT-116; HCT-116, 72 h",8.7 µM
same,IC50,"CCD-18Co; CCD-18Co, 72 h",14 µM
same,IC50,SUV39H2,0.0122 µM
"COc1cc(OC)c(-c2cn3ccc(N4CCNCC4)cc3n2)cc1Cl [Example 17, 2-(5-chloro-2,4-dimethoxyphenyl)-7-(piperazin-1-yl)imidazo[1,2-a]pyridine]",IC50,A549; [2],6.1 µM
same,IC50,HFL1; [3],3.3 µM
same,IC50,HCT-116; [4],4.5 µM
same,IC50,CCD-18Co; [5],8.6 µM
same,IC50,SUV39H2; enzyme assay,0.0195 µM
"COc1cc(OC)c(-c2cn3ccc(NCCNC(=O)OC(C)(C)C)nc3n2)cc1Br [Example 18, tert-butyl (2-((2-(5-bromo-2,4-dimethoxyphenyl)imidazo[1,2-a]pyrimidin-7-yl)amino)ethyl)carbamate]",IC50,A549; [2],14 µM
same,IC50,HFL1; [3],11 µM
same,IC50,HCT-116; [4],13 µM
same,IC50,CCD-18Co; [5],12 µM
same,IC50,SUV39H2; enzyme assay,0.0884 µM
"COc1cc(OC)c(-c2cn3ccc(N4CCC(N)C4)nc3n2)cc1Br (stereo not shown) [Example 19, hydrochloride]",IC50,A549; [1],11 µM
same,IC50,"HFL1; HFL1, 72 h",4.2 µM
same,IC50,"HCT-116; HCT-116, 72 h",7.9 µM
same,IC50,"CCD-18Co; CCD-18Co, 72 h",16 µM
same,IC50,SUV39H2,0.0292 µM
"COc1cc(OC)c(-c2cn3ccc(O)cc3n2)cc1Cl [Example 20, 2-(5-chloro-2,4-dimethoxyphenyl)imidazo[1,2-a]pyridin-7-ol]",IC50,SUV39H2; enzyme assay,0.09 µM
"COc1cc(OC)c(-c2cn3ccc(N4CCC(NC(N)=O)C4)cc3n2)cc1Cl (stereo not shown) [Example 38, 1-(1-(2-(5-chloro-2,4-dimethoxyphenyl)imidazo[1,2-a]pyridin-7-yl)pyrrolidin-3-yl)urea]",IC50,SUV39H2; enzyme assay,0.00411 µM
"COc1cc(OC)c(-c2cn3ccc(N4CCC(NC(=O)[C@H](CCC(N)=O)NC(=O)OC(C)(C)C)C4)cc3n2)cc1Cl (stereo partly drawn) [Example 39, tert-butyl ((2S)-5-amino-1-((1-(2-(5-chloro-2,4-dimethoxyphenyl)imidazo[1,2-a]pyridin-7-yl)pyrrolidin-3-yl)amino)-1,5-dioxopentan-2-yl)carbamate]",IC50,SUV39H2; enzyme assay,0.00489 µM
"COc1cc(OC)c(-c2cn3ccc(N)nc3n2)cc1C#N [Example 46, 5-(7-aminoimidazo[1,2-a]pyrimidin-2-yl)-2,4-dimethoxybenzonitrile]",IC50,SUV39H2; enzyme assay,0.0453 µM
"COc1cc(OC)c(-c2cn3ccc(N4CCC(NC(=O)CCN)C4)cc3n2)cc1Cl (stereo not shown) [Example 50, 3-amino-N-(1-(2-(5-chloro-2,4-dimethoxyphenyl)imidazo[1,2-a]pyridin-7-yl)pyrrolidin-3-yl)propanamide]",IC50,SUV39H2; enzyme assay,0.00575 µM
"COc1cc(OC)c(-c2cn3ccc(N4CCC(NC(=O)NCCN)C4)cc3n2)cc1Cl (stereo not shown) [Example 62, 1-(2-aminoethyl)-3-(1-(2-(5-chloro-2,4-dimethoxyphenyl)imidazo[1,2-a]-pyridin-7-yl)pyrrolidin-3-yl)urea]",IC50,SUV39H2; enzyme assay,0.00514 µM
"COc1cc(OC)c(-c2cn3ccc(NCCN4CCCCC4)cc3n2)cc1Cl [Example 64, 2-(5-chloro-2,4-dimethoxyphenyl)-N-(2-(piperidin-1-yl)ethyl)imidazo[1,2-a]pyridine-7-amine]",IC50,A549; [1],4.2 µM
same,IC50,"HFL1; HFL1, 72 h",2.6 µM
same,IC50,"HCT-116; HCT-116, 72 h",3.4 µM
same,IC50,"CCD-18Co; CCD-18Co, 72 h",4.5 µM
"COc1cc(OC)c(-c2cn3ccc(N4CCCC4)nc3n2)cc1C#N [Example 69, 2,4-dimethoxy-5-(7-(pyrrolidin-1-yl)imidazo[1,2-a]pyrimidin-2-yl)-benzonitrile hydrochloride]",IC50,SUV39H2,0.0141 µM
"COc1cc(OC)c(-c2cn3ccc(C)cc3n2)cc1Cl [Example 76, 2-(5-chloro-2,4-dimethoxyphenyl)-7-methylimidazo[1,2-a]pyridine hydrobromide]",IC50,SUV39H2; enzyme assay,0.0665 µM
"COc1cc(OC)c(-c2cn3ccc(N4CCN(CCC(=O)O)CC4)cc3n2)cc1Cl [Example 133, 3-(4-(2-(5-chloro-2,4-dimethoxyphenyl)imidazo[1,2-a]pyridin-7-yl)piperazin-1-yl)propanoic acid]",IC50,SUV39H2; enzyme assay,0.0137 µM
"COc1cc(OC)c(-c2cn3ccc(C4=CCN(CCC(=O)O)CC4)cc3n2)cc1Cl [Example 141, 3-(4-(2-(5-chloro-2,4-dimethoxyphenyl)imidazo[1,2-a]pyridin-7-yl)-5,6-dihydropyridin-1(2H)-yl)propanoic acid]",IC50,SUV39H2; enzyme assay,0.0777 µM
"COCC(=O)N1CCN(c2ccn3cc(-c4cc(Cl)c(OC)cc4OC)nc3c2)C(C)C1 (stereo not shown) [Example 313, 1-(4-(2-(5-chloro-2,4-dimethoxyphenyl)imidazo[1,2-a]pyridin-7-yl)-3-methylpiperazin-1-yl)-2-methoxyethanone]",IC50,A549; [6],10 µM
"COc1cc(OC)c(-c2cn3ccc(N4CCN(c5cnc(N6CCNCC6)nc5)CC4)cc3n2)cc1Cl [Example 344, 2-(5-chloro-2,4-dimethoxyphenyl)-7-(4-(2-(piperazin-1-yl)pyrimidin-5-yl)piperazin-1-yl)imidazo[1,2-a]pyridine bis(2,2,2-trifluoroacetate)]",IC50,A549; [6],0.35 µM
"COC(=O)c1ccc(CN[C@H]2CC[C@@H](Nc3ccn4cc(-c5cc(Cl)c(OC)cc5OC)nc4c3)CC2)cc1 [Example 409, methyl 4-(((cis-4-((2-(5-chloro-2,4-dimethoxyphenyl)imidazo[1,2-a]pyridin-7-yl)amino)cyclohexyl)amino)methyl)benzoate bis(2,2,2-trifluoroacetate)]",IC50,A549; [6],0.86 µM
"COc1cc(OC)c(-c2cn3ccc(N4CC[C@H](NCC5CCN(S(=O)(=O)C6CC6)CC5)C4)cc3n2)cc1Cl [Example 421, (S)-1-(2-(5-chloro-2,4-dimethoxyphenyl)imidazo[1,2-a]pyridin-7-yl)-N-((1-(cyclopropylsulfonyl)piperidin-4-yl)methyl)pyrrolidin-3-amine]",IC50,A549; [6],0.94 µM
